Numbering of substitutions follows the chain as printed. Read-outs that look alike come from different tables or passages of the source.

The values below come from patent US20190231718A1, “TREATMENT OF BREAST CANCER” (Duke University, priority 2016, published 2019).

Data set [1] has as its target T1, ESR1 wild type receptor (ERα WT) (Homo sapiens, UniProt P03372).
T1 construct: expressed in transfected cells; host or cells: Caov2 ovarian carcinoma cells; SKBR3 breast adenocarcinoma cells
T1 sequence (P03372 1-595): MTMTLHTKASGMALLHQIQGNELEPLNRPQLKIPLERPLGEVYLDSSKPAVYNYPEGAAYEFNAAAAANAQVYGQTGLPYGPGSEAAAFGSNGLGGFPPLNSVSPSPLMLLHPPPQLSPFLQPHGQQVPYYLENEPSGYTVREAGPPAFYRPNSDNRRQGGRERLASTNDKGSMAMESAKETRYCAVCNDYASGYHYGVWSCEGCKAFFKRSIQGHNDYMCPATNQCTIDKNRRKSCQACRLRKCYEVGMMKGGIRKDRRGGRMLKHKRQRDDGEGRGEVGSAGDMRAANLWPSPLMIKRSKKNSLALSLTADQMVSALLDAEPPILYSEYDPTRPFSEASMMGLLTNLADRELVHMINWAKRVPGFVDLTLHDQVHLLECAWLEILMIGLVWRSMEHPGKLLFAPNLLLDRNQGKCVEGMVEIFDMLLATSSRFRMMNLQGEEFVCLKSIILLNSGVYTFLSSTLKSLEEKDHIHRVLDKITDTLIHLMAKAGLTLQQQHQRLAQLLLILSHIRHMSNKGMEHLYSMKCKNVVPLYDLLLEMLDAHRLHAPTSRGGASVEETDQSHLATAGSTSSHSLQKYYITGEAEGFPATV
Kind of data set: ERE-luciferase reporter gene assay, wild-type ERα, Caov2 cells. Format: cell-based. The protocol:
(§1) ExSite mutagenesis was performed using the corresponding primers as summarized in Table 1 below on a pENTR2B ERα WT construct using Pfu ultra taq polymerase. The primers were PNK phosphorylated. Following PCR amplification, the products were digested with DpnI at 37° C. for 1 hr, followed by overnight ligation at 16° C. Ligated products were transformed into DH5α bacterial cells and grown on kanamycin resistant plates. The pENTR clones were verified by sequencing and then swapped into the pcDNA-DEST vector using the Gateway system (Invitrogen) for expression analysis.
(§2) Caov2 ovarian carcinoma cells were grown in RPMI-1640 media (Gibco) supplemented with 8% Fetal Bovine Serum (FBS), Sodium Pyruvate (NaPyr) and non-essential amino acids (NEAA) and passaged every 2-3 days. SKBR3 breast adenocarcinoma cells were grown in DMEM media (Gibco) supplemented with 8% Fetal Bovine Serum (FBS), Sodium Pyruvate (NaPyr) and non-essential amino acids (NEAA) and passaged every 2-3 days. […]
(§3) Caov2 cells were co-transfected with the 7X-TK-ERE-TATA luciferase reporter gene (Nagel et al., Endocrinology 142(11): 4721-4728 (2001)) and expression constructs for either wild-type or mutant receptors using Fugene transfection reagent (Promega). […] Following 24 hours of treatment, cells were lysed and the luciferase and β-gal assays were performed as described previously (Norris et al., J Biol Chem 270(39): 22777-22782 (1995)) and the plates were read on the Fusion α-FP HT plate reader (PerkinElmer Life Sciences).
(§4) See Jeselsohn et al., Nature Reviews Clinical Oncology 12(10): 573-583 (2015); Jeselsohn et al., Clinical Cancer Research 20(7): 1757-1767 (2014); Robinson et al., Nature Genetics 45(12): 1446-1451(2013); Thomas and Gustafsson, Trends in Endocrinology and Metabolism 26(9): 467-476 (2015); and Toy et al., Nature Genetics 45(12): 1439-1445 (2013). The activity of these mutants was evaluated in a reconstituted estrogen response element (ERE)-luciferase reporter assay in Caov2 ovarian carcinoma cells and SKBR3 breast adenocarcinoma cells. […]

Data set [2] has as its target T2, Y537N mutant receptor (ERα LBD mutant) (Homo sapiens, UniProt P03372, Y537N).
T2 construct: expressed in transfected cells; host or cells: Caov2 ovarian carcinoma cells; SKBR3 breast adenocarcinoma cells
T2 sequence (P03372 1-595 Y537N): T1 sequence (P03372 1-595) with Y537N
As to the kind of experiment: ERE-luciferase reporter gene assay, ERα Y537N, Caov2 cells. The class given is cell-based. The protocol: as §1, §2, §3, §4

In data set [3] the target is T3, Y537C mutant receptor (ERα LBD mutant) (Homo sapiens, UniProt P03372, Y537C).
T3 construct: expressed in transfected cells; host or cells: Caov2 ovarian carcinoma cells; SKBR3 breast adenocarcinoma cells
T3 sequence (P03372 1-595 Y537C): T1 sequence (P03372 1-595) with Y537C
As to the kind of experiment: ERE-luciferase reporter gene assay, ERα Y537C, Caov2 cells. The class given is cell-based. The method, then: as §1, §2, §3, §4
In general terms: A reporter such as luciferase makes a cellular process visible.

Data set [4] has as its target T1, ESR1 wild type receptor (ERα WT). As to the kind of experiment: ERE-luciferase reporter gene assay, wild-type ERα, SKBR3 cells. The class given is cell-based. The method, then: as §1, §2, §3, §4
Data set [5] deals with T2, Y537N mutant receptor (ERα LBD mutant). As to the kind of experiment: ERE-luciferase reporter gene assay, ERα Y537N, SKBR3 cells. Format: cell-based. The protocol: as §1, §2, §3, §4
Data set [6] addresses T3, Y537C mutant receptor (ERα LBD mutant). Kind of data set: ERE-luciferase reporter gene assay, ERα Y537C, SKBR3 cells. The class given is cell-based. The method, then:
as §1, §2, §3, §4

Data set [7] is described as follows: Reported Cmax in blood at approved doses. Format: in vivo. The text has this: See Maximov et al., Current Clinical Pharmacology 8(2): 135-155 (2013) and McDonnell et al., Journal of Medicinal Chemistry 58(12): 4883-4887 (2015). The transcriptional IC90 values of ER modulators evaluated were compared to the Cmax of these compounds in blood at approved doses. See Highlights of Prescribing Information: Evista, 2007; Highlights of Prescribing Information: Faslodex, 2012; Nolvadex, 2006; and Summary of Product Characteristics: Conbriza 2009.

The conditions of data set [8]: in blood at approved doses: ICI 500 mg, 4OHT 20 mg, raloxifene 60 mg, bazedoxifene 20 mg; cited from earlier work.
Setting [9] is: human, blood, reported Cmax converted to molar, same approved doses, read-out: Converted (M) Cmax.

Turning to 4-hydroxytamoxifen [4OHT], the “Caov2 Ratio Cmax/IC90” value in data set [1] was determined as 119.01; in data set [2] it was 11.6; in data set [3], 13.24. Besides, the IC90 (in general, the concentration at which the effect reaches the 90% level) in data set [1] came out at 0.924 nM; in data set [2] it was 9.45 nM; in data set [3] it was 8.31 nM; in data set [4] it was 3.2 nM; in data set [5], 130 nM; in data set [6] it was 59 nM. Further, the “inhibition of receptor transcriptional activity (in words)” value in data set [1] was “inhibits activity of the ESR1 wild type receptor”; in data set [2], “inhibits the Y537N mutant receptor activity in a dose-response manner”; in data set [3], “inhibits the Y537C mutant receptor activity in a dose-response manner”; in data set [4] it was “inhibits the ESR1 wild type receptor activity”; in data set [5] it was “inhibits the Y537N mutant receptor activity in a dose-response manner”; in data set [6], “inhibits the Y537C mutant receptor activity in a dose-response manner”. Further, the “SKBR3 Ratio Cmax/IC90” value in data set [4] came out at 34.38; in data set [5] it was 0.85; in data set [6] it was 1.86. Further, the concentration in data set [7] (in vivo) peaked (Cmax) at 1.1e-07 M. For the same compound, in data set [8], the “Reported Cmax” value is 40 ng/mL.

Take `Cc1c(-c2ccc(O)cc2)n(Cc2ccc(OCCN3CCCCCC3)cc2)c2ccc(O)cc12` [Bazedoxifene, bazedoxifene]: the Cmax (commonly the peak of the concentration-time curve) in data set [7] (setting [9]) was 7.29e-09 M. The “Reported Cmax” value in data set [8] is on record as 6.2 ng/mL.

For the compound `C[C@]12CC[C@@H]3c4ccc(O)cc4C[C@@H](CCCCCCCCC[S+]([O-])CCCC(F)(F)C(F)(F)F)[C@H]3[C@@H]1CC[C@@H]2O` (some centres unmarked) [ICI, fulvestrant], in data set [7] (human, in vivo), the Cmax was determined as 4.6e-08 M. The “Reported Cmax” value in data set [8] is 28 ng/mL.

As to `O=C(c1ccc(OCCN2CCCCC2)cc1)c1c(-c2ccc(O)cc2)sc2cc(O)ccc12` [Raloxifene, raloxifene], the Cmax in data set [7] (setting [9]) was found to be 2.87e-09 M. The “Reported Cmax” value in data set [8] is recorded as 1.36 ng/mL.
